What was measured:
Enterococcus faecium = assay: Growth testing against ESKAPE pathogens: Enterococcus faecium; type: cell-based; design: key: Growth; X: No Growth
Protocol: (§1) Six analogs (FIG. 2) of the ciprofloxacin-N thiolated β-lactam were successfully synthesized. All these compounds were then tested against ESKAPE pathogens for bioactivity. The ESKAPE pathogens are a collection of six deadly superbugs, Enterococcus faecium, Staphylococcus aureus, Klebsiella pneumoniae, Acinetobacter baumannii, Pseudomonas aeruginosa, and Enterobacter species. […] G denotes growth and X denotes no growth in the tables.

Staphylococcus aureus = assay: Growth testing against ESKAPE pathogens: Staphylococcus aureus; type: cell-based; design: key to Activity against Staphylococcus aureus (growth observed): Growth; X: No Growth
Protocol: as §1

Klebesiella pneumonia = assay: Growth testing against ESKAPE pathogens: Klebesiella pneumonia; type: cell-based, Klebsiella pneumoniae; design: key: Growth; X: No Growth
Protocol: as §1

Acinetobacter baumannii = assay: Growth testing against ESKAPE pathogens: Acinetobacter baumannii; type: cell-based; design: key: Growth; X: No Growth
Protocol: as §1

Pseudomonas aeruginosa = assay: Growth testing against ESKAPE pathogens: Pseudomonas aeruginosa; type: cell-based; design: key: Growth; X: No Growth
Protocol: as §1

CCCCCC(=O)N1CCN(c2cc3c(cc2F)c(=O)c(C(=O)OC2C(=O)N(SC)C2c2ccccc2)cn3C2CC2)CC1 (centres unmarked) [Lactam 126]
G: Activity against Enterococcus faecium (growth observed) (Enterococcus faecium; 1 μg/ml) | Activity against Enterococcus faecium (growth observed) (Enterococcus faecium; 2 μg/ml) | Activity against Enterococcus faecium (growth observed) (Enterococcus faecium; 3 μg/ml) | Activity against Enterococcus faecium (growth observed) (Enterococcus faecium; 4 μg/ml) | Activity against Enterococcus faecium (growth observed) (Enterococcus faecium; 5 μg/ml) | Activity against Enterococcus faecium (growth observed) (Enterococcus faecium; 6 μg/ml) | Activity against Enterococcus faecium (growth observed) (Enterococcus faecium; 7 μg/ml) | Activity against Enterococcus faecium (growth observed) (Enterococcus faecium; 8 μg/ml) | Activity against Enterococcus faecium (growth observed) (Enterococcus faecium; 9 μg/ml) | Activity against Enterococcus faecium (growth observed) (Enterococcus faecium; 10 μg/ml) | Activity against Enterococcus faecium (growth observed) (Enterococcus faecium; 25 μg/ml) | Activity against Staphylococcus aureus (growth observed) (Staphylococcus aureus; 1 μg/ml) | Activity against Staphylococcus aureus (growth observed) (Staphylococcus aureus; 2 μg/ml) | Activity against Staphylococcus aureus (growth observed) (Staphylococcus aureus; 3 μg/ml) | Activity against Staphylococcus aureus (growth observed) (Staphylococcus aureus; 4 μg/ml) | Activity against Staphylococcus aureus (growth observed) (Staphylococcus aureus; 5 μg/ml) | Activity against Staphylococcus aureus (growth observed) (Staphylococcus aureus; 6 μg/ml) | Activity against Staphylococcus aureus (growth observed) (Staphylococcus aureus; 7 μg/ml) | Activity against Staphylococcus aureus (growth observed) (Staphylococcus aureus; 8 μg/ml) | Activity against Staphylococcus aureus (growth observed) (Staphylococcus aureus; 9 μg/ml) | Activity against Staphylococcus aureus (growth observed) (Staphylococcus aureus; 10 μg/ml) | Activity against Staphylococcus aureus (growth observed) (Staphylococcus aureus; 25 μg/ml) | Activity against Klebesiella pneumonia (growth observed) (Klebesiella pneumonia; 1 μg/ml) | Activity against Klebesiella pneumonia (growth observed) (Klebesiella pneumonia; 2 μg/ml) | Activity against Klebesiella pneumonia (growth observed) (Klebesiella pneumonia; 3 μg/ml) | Activity against Klebesiella pneumonia (growth observed) (Klebesiella pneumonia; 4 μg/ml) | Activity against Klebesiella pneumonia (growth observed) (Klebesiella pneumonia; 5 μg/ml) | Activity against Klebesiella pneumonia (growth observed) (Klebesiella pneumonia; 6 μg/ml) | Activity against Klebesiella pneumonia (growth observed) (Klebesiella pneumonia; 7 μg/ml) | Activity against Klebesiella pneumonia (growth observed) (Klebesiella pneumonia; 8 μg/ml) | Activity against Klebesiella pneumonia (growth observed) (Klebesiella pneumonia; 9 μg/ml) | Activity against Klebesiella pneumonia (growth observed) (Klebesiella pneumonia; 10 μg/ml) | Activity against Klebesiella pneumonia (growth observed) (Klebesiella pneumonia; 25 μg/ml) | Activity against Acinetobacter baumannii (growth observed) (Acinetobacter baumannii; 1 μg/ml) | Activity against Acinetobacter baumannii (growth observed) (Acinetobacter baumannii; 2 μg/ml) | Activity against Acinetobacter baumannii (growth observed) (Acinetobacter baumannii; 3 μg/ml) | Activity against Acinetobacter baumannii (growth observed) (Acinetobacter baumannii; 4 μg/ml) | Activity against Acinetobacter baumannii (growth observed) (Acinetobacter baumannii; 5 μg/ml) | Activity against Acinetobacter baumannii (growth observed) (Acinetobacter baumannii; 6 μg/ml) | Activity against Acinetobacter baumannii (growth observed) (Acinetobacter baumannii; 7 μg/ml) | Activity against Acinetobacter baumannii (growth observed) (Acinetobacter baumannii; 8 μg/ml) | Activity against Acinetobacter baumannii (growth observed) (Acinetobacter baumannii; 9 μg/ml) | Activity against Acinetobacter baumannii (growth observed) (Acinetobacter baumannii; 10 μg/ml) | Activity against Acinetobacter baumannii (growth observed) (Acinetobacter baumannii; 25 μg/ml) | Activity against Pseudomonas aeruginosa (growth observed) (Pseudomonas aeruginosa; 1 μg/ml) | Activity against Pseudomonas aeruginosa (growth observed) (Pseudomonas aeruginosa; 2 μg/ml) | Activity against Pseudomonas aeruginosa (growth observed) (Pseudomonas aeruginosa; 3 μg/ml) | Activity against Pseudomonas aeruginosa (growth observed) (Pseudomonas aeruginosa; 4 μg/ml) | Activity against Pseudomonas aeruginosa (growth observed) (Pseudomonas aeruginosa; 5 μg/ml) | Activity against Pseudomonas aeruginosa (growth observed) (Pseudomonas aeruginosa; 6 μg/ml) | Activity against Pseudomonas aeruginosa (growth observed) (Pseudomonas aeruginosa; 7 μg/ml) | Activity against Pseudomonas aeruginosa (growth observed) (Pseudomonas aeruginosa; 8 μg/ml) | Activity against Pseudomonas aeruginosa (growth observed) (Pseudomonas aeruginosa; 9 μg/ml) | Activity against Pseudomonas aeruginosa (growth observed) (Pseudomonas aeruginosa; 10 μg/ml) | Activity against Pseudomonas aeruginosa (growth observed) (Pseudomonas aeruginosa; 25 μg/ml)

CCCCCCC(=O)N1CCN(c2cc3c(cc2F)c(=O)c(C(=O)OC2C(=O)N(SC)C2c2ccccc2)cn3C2CC2)CC1 (centres unmarked) [Lactam 127]
G: Activity against Enterococcus faecium (growth observed) (Enterococcus faecium; 1 μg/ml) | Activity against Enterococcus faecium (growth observed) (Enterococcus faecium; 2 μg/ml) | Activity against Enterococcus faecium (growth observed) (Enterococcus faecium; 3 μg/ml) | Activity against Enterococcus faecium (growth observed) (Enterococcus faecium; 4 μg/ml) | Activity against Enterococcus faecium (growth observed) (Enterococcus faecium; 5 μg/ml) | Activity against Enterococcus faecium (growth observed) (Enterococcus faecium; 6 μg/ml) | Activity against Enterococcus faecium (growth observed) (Enterococcus faecium; 7 μg/ml) | Activity against Enterococcus faecium (growth observed) (Enterococcus faecium; 8 μg/ml) | Activity against Enterococcus faecium (growth observed) (Enterococcus faecium; 9 μg/ml) | Activity against Enterococcus faecium (growth observed) (Enterococcus faecium; 10 μg/ml) | Activity against Enterococcus faecium (growth observed) (Enterococcus faecium; 25 μg/ml) | Activity against Staphylococcus aureus (growth observed) (Staphylococcus aureus; 1 μg/ml) | Activity against Staphylococcus aureus (growth observed) (Staphylococcus aureus; 2 μg/ml) | Activity against Staphylococcus aureus (growth observed) (Staphylococcus aureus; 3 μg/ml) | Activity against Staphylococcus aureus (growth observed) (Staphylococcus aureus; 4 μg/ml) | Activity against Staphylococcus aureus (growth observed) (Staphylococcus aureus; 5 μg/ml) | Activity against Staphylococcus aureus (growth observed) (Staphylococcus aureus; 6 μg/ml) | Activity against Staphylococcus aureus (growth observed) (Staphylococcus aureus; 7 μg/ml) | Activity against Staphylococcus aureus (growth observed) (Staphylococcus aureus; 8 μg/ml) | Activity against Staphylococcus aureus (growth observed) (Staphylococcus aureus; 9 μg/ml) | Activity against Staphylococcus aureus (growth observed) (Staphylococcus aureus; 10 μg/ml) | Activity against Staphylococcus aureus (growth observed) (Staphylococcus aureus; 25 μg/ml) | Activity against Klebesiella pneumonia (growth observed) (Klebesiella pneumonia; 1 μg/ml) | Activity against Klebesiella pneumonia (growth observed) (Klebesiella pneumonia; 2 μg/ml) | Activity against Klebesiella pneumonia (growth observed) (Klebesiella pneumonia; 3 μg/ml) | Activity against Klebesiella pneumonia (growth observed) (Klebesiella pneumonia; 4 μg/ml) | Activity against Klebesiella pneumonia (growth observed) (Klebesiella pneumonia; 5 μg/ml) | Activity against Klebesiella pneumonia (growth observed) (Klebesiella pneumonia; 6 μg/ml) | Activity against Klebesiella pneumonia (growth observed) (Klebesiella pneumonia; 7 μg/ml) | Activity against Klebesiella pneumonia (growth observed) (Klebesiella pneumonia; 8 μg/ml) | Activity against Klebesiella pneumonia (growth observed) (Klebesiella pneumonia; 9 μg/ml) | Activity against Klebesiella pneumonia (growth observed) (Klebesiella pneumonia; 10 μg/ml) | Activity against Klebesiella pneumonia (growth observed) (Klebesiella pneumonia; 25 μg/ml) | Activity against Acinetobacter baumannii (growth observed) (Acinetobacter baumannii; 1 μg/ml) | Activity against Acinetobacter baumannii (growth observed) (Acinetobacter baumannii; 2 μg/ml) | Activity against Acinetobacter baumannii (growth observed) (Acinetobacter baumannii; 3 μg/ml) | Activity against Acinetobacter baumannii (growth observed) (Acinetobacter baumannii; 4 μg/ml) | Activity against Acinetobacter baumannii (growth observed) (Acinetobacter baumannii; 5 μg/ml) | Activity against Acinetobacter baumannii (growth observed) (Acinetobacter baumannii; 6 μg/ml) | Activity against Acinetobacter baumannii (growth observed) (Acinetobacter baumannii; 7 μg/ml) | Activity against Acinetobacter baumannii (growth observed) (Acinetobacter baumannii; 8 μg/ml) | Activity against Acinetobacter baumannii (growth observed) (Acinetobacter baumannii; 9 μg/ml) | Activity against Acinetobacter baumannii (growth observed) (Acinetobacter baumannii; 10 μg/ml) | Activity against Acinetobacter baumannii (growth observed) (Acinetobacter baumannii; 25 μg/ml) | Activity against Pseudomonas aeruginosa (growth observed) (Pseudomonas aeruginosa; 1 μg/ml) | Activity against Pseudomonas aeruginosa (growth observed) (Pseudomonas aeruginosa; 2 μg/ml) | Activity against Pseudomonas aeruginosa (growth observed) (Pseudomonas aeruginosa; 3 μg/ml) | Activity against Pseudomonas aeruginosa (growth observed) (Pseudomonas aeruginosa; 4 μg/ml) | Activity against Pseudomonas aeruginosa (growth observed) (Pseudomonas aeruginosa; 5 μg/ml) | Activity against Pseudomonas aeruginosa (growth observed) (Pseudomonas aeruginosa; 6 μg/ml) | Activity against Pseudomonas aeruginosa (growth observed) (Pseudomonas aeruginosa; 7 μg/ml) | Activity against Pseudomonas aeruginosa (growth observed) (Pseudomonas aeruginosa; 8 μg/ml) | Activity against Pseudomonas aeruginosa (growth observed) (Pseudomonas aeruginosa; 9 μg/ml) | Activity against Pseudomonas aeruginosa (growth observed) (Pseudomonas aeruginosa; 10 μg/ml) | Activity against Pseudomonas aeruginosa (growth observed) (Pseudomonas aeruginosa; 25 μg/ml)

Reference: patent US10010545B1, “Antibiotic compositions and methods of use” (University of South Florida, priority 2013, dated 2018)
